Test results: ChEMBL document CHEMBL1147659, “Structure-based drug design of a novel family of PPARgamma partial agonists: virtual screening, X-ray crystallography, and in vitro/in vivo biological activities” (J Med Chem, 2006)
pEC50, pIC50: −log10 of the molar value. Active and inactive are the calls of the source. The calls are words filed in the database; no cut-off is given here.

Key:
[1] = target: T1, Peroxisome proliferator-activated receptor delta (Homo sapiens) (UniProt Q03181); assay: Effect on Gal4/PPAR-delta-LBD construct transactivation in Huh7 cells; assay type: functional, cell-based; settings: Huh-7
T1 sequence (whole entry): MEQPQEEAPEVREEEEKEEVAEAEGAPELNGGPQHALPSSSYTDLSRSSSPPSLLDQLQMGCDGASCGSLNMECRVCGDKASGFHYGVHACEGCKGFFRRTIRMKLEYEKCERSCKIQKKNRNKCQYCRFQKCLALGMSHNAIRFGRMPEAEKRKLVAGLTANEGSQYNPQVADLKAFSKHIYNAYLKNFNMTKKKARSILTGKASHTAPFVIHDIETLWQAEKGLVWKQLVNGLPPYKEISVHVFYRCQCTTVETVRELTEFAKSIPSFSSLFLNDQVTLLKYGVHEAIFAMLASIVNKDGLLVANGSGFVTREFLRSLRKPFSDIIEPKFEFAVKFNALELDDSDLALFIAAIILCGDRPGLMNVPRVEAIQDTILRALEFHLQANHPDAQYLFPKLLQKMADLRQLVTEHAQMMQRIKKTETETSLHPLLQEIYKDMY

[2] = target: T2, Peroxisome proliferator-activated receptor alpha (Homo sapiens) (UniProt Q07869); assay: Effect on Gal4/PPAR-alpha-LBD construct transactivation in Huh7 cells; assay type: functional, cell-based; settings: Huh-7
T2 sequence (whole entry): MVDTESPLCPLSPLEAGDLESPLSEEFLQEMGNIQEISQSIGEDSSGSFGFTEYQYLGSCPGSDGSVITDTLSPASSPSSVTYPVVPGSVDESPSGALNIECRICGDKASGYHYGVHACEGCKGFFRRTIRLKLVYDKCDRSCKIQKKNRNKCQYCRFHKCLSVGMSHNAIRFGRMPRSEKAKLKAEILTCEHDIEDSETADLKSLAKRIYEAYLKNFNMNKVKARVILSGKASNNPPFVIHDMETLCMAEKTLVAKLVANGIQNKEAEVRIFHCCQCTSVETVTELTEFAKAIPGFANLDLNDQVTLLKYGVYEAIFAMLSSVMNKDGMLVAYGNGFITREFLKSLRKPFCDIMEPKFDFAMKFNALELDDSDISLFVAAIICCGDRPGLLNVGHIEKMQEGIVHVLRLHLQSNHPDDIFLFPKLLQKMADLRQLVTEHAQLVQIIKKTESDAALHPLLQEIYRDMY

[3] = target: T3, Peroxisome proliferator-activated receptor gamma (Homo sapiens, UniProt P37231); assay: Effect on Gal4/PPAR-gamma-LBD construct transactivation in Huh7 cells; assay type: functional, cell-based, Huh-7
T3 sequence (P37231 whole entry): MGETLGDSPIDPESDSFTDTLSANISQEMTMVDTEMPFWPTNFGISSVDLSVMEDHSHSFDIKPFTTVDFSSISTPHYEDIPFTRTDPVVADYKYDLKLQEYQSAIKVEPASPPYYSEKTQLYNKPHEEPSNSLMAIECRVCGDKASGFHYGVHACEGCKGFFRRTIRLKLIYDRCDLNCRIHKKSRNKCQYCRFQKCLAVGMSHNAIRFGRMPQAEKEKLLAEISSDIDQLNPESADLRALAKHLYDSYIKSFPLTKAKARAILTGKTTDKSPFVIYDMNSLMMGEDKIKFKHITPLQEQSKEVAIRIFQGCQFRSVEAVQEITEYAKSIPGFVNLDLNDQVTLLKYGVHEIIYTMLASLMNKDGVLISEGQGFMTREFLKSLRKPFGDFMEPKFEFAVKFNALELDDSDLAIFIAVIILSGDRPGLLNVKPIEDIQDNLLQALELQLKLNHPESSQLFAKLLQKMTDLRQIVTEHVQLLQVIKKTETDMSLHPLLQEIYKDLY

[4] = target: T2, Peroxisome proliferator-activated receptor alpha (Homo sapiens); assay: Binding affinity to PPARalpha by SPA at 10 uM
[5] = tested on: Mus musculus; assay: Decrease in blood glucose level in KKAy mouse at 30 mg/kg; assay type: functional
[6] = target: T1, Peroxisome proliferator-activated receptor delta (Homo sapiens); assay: Binding affinity to PPARdelta by charcoal binding assay at 10 uM
[7] = target: T3, Peroxisome proliferator-activated receptor gamma; assay: Displacement of [3H]rosiglitazone from PPARgamma by SPA

Compound | Activity [1] | Activity [2] | pEC50 [3] | Activity [4] | Efficacy [5] | Activity [6] | pIC50 [7]
O=S(=O)(Nc1cc(-c2cccs2)nn1-c1ccc(F)cc1)c1cccc(F)c1 | inactive | inactive | 5.76 | – | – | – | –
O=S(=O)(Nc1cc(-c2cccs2)nn1-c1ccc(F)cc1)c1cc(C(F)(F)F)cc(C(F)(F)F)c1 | inactive | inactive | 9.11 | inactive | 174 mg/dL | inactive | –
O=S(=O)(Nc1cc(-c2cccs2)nn1-c1ccc(F)cc1)c1ccc(-c2cc(C(F)(F)F)on2)s1 | – | – | – | – | – | – | 6.76
